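The compound was tested at five concentrations on cells cultured in 96-well plates, with a 48-hour exposure period. GI50 = concentration required for 50% inhibition of growth.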 Active and inactive are the calls of the source. No stated cut-off is given here; in the data, active = GI50 up to about 1.1 µM and inactive = higher.
Legend:
Assay in all cases: NCI anticancer screen, dose series, 48 h
NCI-H23 = system: NCI-H23
COLO 205 = system: COLO 205
SN12C = system: SN12C
Malme-3M = system: Malme-3M
TK-10 = system: TK-10
RPMI-8226 = system: RPMI-8226
SNB-19 = system: SNB-19
U-251 = system: U-251
ACHN = system: ACHN
MDA-MB-231 = system: MDA-MB-231
BT-549 = system: BT-549
IGROV-1 = system: IGROV-1
SK-OV-3 = system: SK-OV-3
HOP-62 = system: HOP-62
NCI-H460 = system: NCI-H460
UO-31 = system: UO-31
MDA-N = system: MDA-N
NCI-H522 = system: NCI-H522
OVCAR-3 = system: OVCAR-3
HCT-116 = system: HCT-116
MCF7 = system: MCF7
786-0 = system: 786-0
MOLT-4 = system: MOLT-4
NCI/ADR-RES = system: NCI/ADR-RES
M14 = system: M14
T47D = system: T47D
Hs-578T = system: Hs-578T
MDA-MB-435 = system: MDA-MB-435
EKVX = system: EKVX
SK-MEL-2 = system: SK-MEL-2
HOP-92 = system: HOP-92
SNB-75 = system: SNB-75
OVCAR-5 = system: OVCAR-5
SK-MEL-5 = system: SK-MEL-5
OVCAR-8 = system: OVCAR-8
HT-29 = system: HT-29
SK-MEL-28 = system: SK-MEL-28
SR = system: SR
DU-145 = system: DU-145
CCRF-CEM = system: CCRF-CEM
SW-620 = system: SW-620
OVCAR-4 = system: OVCAR-4
KM12 = system: KM12
A549 = system: A549
PC-3 = system: PC-3
LOX IMVI = system: LOX IMVI
HCT-15 = system: HCT-15
HCC 2998 = system: HCC 2998
SF-268 = system: SF-268
UACC-62 = system: UACC-62
SF-295 = system: SF-295
NCI-H226 = system: NCI-H226
K562 = system: K562
A498 = system: A498
SF-539 = system: SF-539
RXF 393 = system: RXF 393
UACC-257 = system: UACC-257
CAKI-1 = system: CAKI-1
HL-60 = system: HL-60

Measured: GI50

Cc1nn(-c2ccccc2)c2nc3ccc(Cl)cc3c(-c3ccccc3)c12
inactive: NCI-H23 > 100 µM | COLO 205 > 100 µM | SN12C > 100 µM | Malme-3M > 100 µM | TK-10 > 100 µM | RPMI-8226 > 100 µM | SNB-19 > 100 µM | U-251 > 100 µM | ACHN > 100 µM | MDA-MB-231 > 100 µM | BT-549 > 100 µM | IGROV-1 > 100 µM | SK-OV-3 > 100 µM | HOP-62 > 100 µM | NCI-H460 > 100 µM | UO-31 > 100 µM | MDA-N > 100 µM | NCI-H522 > 100 µM | OVCAR-3 > 100 µM | HCT-116 > 100 µM | MCF7 > 100 µM | 786-0 > 100 µM | MOLT-4 > 100 µM | NCI/ADR-RES > 100 µM | M14 > 100 µM | T47D > 100 µM | Hs-578T > 100 µM | MDA-MB-435 > 100 µM | EKVX > 100 µM | SK-MEL-2 > 100 µM | HOP-92 > 100 µM | SNB-75 > 100 µM | OVCAR-5 > 100 µM | SK-MEL-5 > 100 µM | OVCAR-8 > 100 µM | HT-29 > 100 µM | SK-MEL-28 > 100 µM | SR > 100 µM | DU-145 > 100 µM | CCRF-CEM > 100 µM | SW-620 > 100 µM | OVCAR-4 > 100 µM | KM12 > 100 µM | A549 > 100 µM | PC-3 > 100 µM | LOX IMVI > 100 µM | HCC 2998 > 100 µM | SF-268 > 100 µM | UACC-62 > 100 µM | SF-295 > 100 µM | NCI-H226 > 100 µM
> 100 µM: HCT-15

Cc1[nH]c2ncn(/N=C/c3ccccc3O)c(=N)c2c1Cc1ccccc1
inactive: NCI-H23 50.6 µM | COLO 205 > 100 µM | SN12C 67 µM | K562 11.3 µM | TK-10 56.9 µM | RPMI-8226 37.8 µM | SNB-19 > 100 µM | U-251 19.6 µM | ACHN 54.2 µM | MDA-MB-231 24.9 µM | A498 36.5 µM | SF-539 30 µM | BT-549 37.2 µM | IGROV-1 > 100 µM | SK-OV-3 > 100 µM | HOP-62 > 100 µM | NCI-H460 66.7 µM | UO-31 43.1 µM | MDA-N 26 µM | OVCAR-3 24.2 µM | HCT-116 43.4 µM | MCF7 33 µM | 786-0 81.8 µM | MOLT-4 30.8 µM | NCI/ADR-RES 40.6 µM | M14 58.6 µM | T47D > 100 µM | Hs-578T 96.2 µM | MDA-MB-435 18.5 µM | EKVX 25 µM | SK-MEL-2 23.3 µM | HOP-92 > 100 µM | SNB-75 91 µM | OVCAR-5 > 100 µM | RXF 393 > 100 µM | UACC-257 34.4 µM | OVCAR-8 > 100 µM | HT-29 47.6 µM | SK-MEL-28 42.3 µM | DU-145 > 100 µM | CCRF-CEM 39.4 µM | SW-620 32.2 µM | OVCAR-4 63.5 µM | KM12 30.2 µM | A549 39.4 µM | PC-3 17.6 µM | LOX IMVI 59.2 µM | HCC 2998 28.9 µM | SF-268 75.2 µM | UACC-62 37.2 µM | CAKI-1 46.1 µM | HL-60 23.6 µM | SF-295 58.6 µM | NCI-H226 75.5 µM
46.3 µM: HCT-15

C(=N/Nc1ccccn1)/c1cccnc1
inactive: NCI-H23 75 µM | COLO 205 > 100 µM | SN12C > 100 µM | Malme-3M 66.4 µM | K562 31 µM | TK-10 > 100 µM | RPMI-8226 > 100 µM | SNB-19 > 100 µM | U-251 > 100 µM | ACHN > 100 µM | MDA-MB-231 > 100 µM | A498 > 100 µM | SF-539 > 100 µM | BT-549 > 100 µM | IGROV-1 > 100 µM | SK-OV-3 > 100 µM | HOP-62 > 100 µM | NCI-H460 > 100 µM | UO-31 > 100 µM | MDA-N > 100 µM | NCI-H522 > 100 µM | OVCAR-3 > 100 µM | HCT-116 > 100 µM | MCF7 43.9 µM | 786-0 > 100 µM | MOLT-4 76.2 µM | NCI/ADR-RES > 100 µM | M14 62.7 µM | T47D > 100 µM | Hs-578T > 100 µM | MDA-MB-435 > 100 µM | EKVX 49.4 µM | SK-MEL-2 > 100 µM | HOP-92 > 100 µM | SNB-75 58.6 µM | OVCAR-5 > 100 µM | SK-MEL-5 > 100 µM | RXF 393 > 100 µM | UACC-257 89.3 µM | OVCAR-8 > 100 µM | HT-29 > 100 µM | SK-MEL-28 87.7 µM | DU-145 > 100 µM | CCRF-CEM > 100 µM | SW-620 > 100 µM | OVCAR-4 98.9 µM | KM12 68.7 µM | A549 > 100 µM | PC-3 > 100 µM | LOX IMVI > 100 µM | HCC 2998 > 100 µM | SF-268 > 100 µM | UACC-62 94.6 µM | CAKI-1 > 100 µM | HL-60 > 100 µM | SF-295 > 100 µM | NCI-H226 > 100 µM
> 100 µM: HCT-15

COC(=O)c1cc(C)ccc1C1CN=NC12Cc1c(C)cc(C)cc1C2=O (stereo unspecified)
22.5 µM: HCT-15
inactive: NCI-H23 19.1 µM | COLO 205 16.7 µM | SN12C 28.6 µM | Malme-3M 11.8 µM | K562 18.4 µM | TK-10 34.1 µM | SNB-19 31 µM | U-251 27 µM | ACHN 40.5 µM | MDA-MB-231 19.7 µM | SF-539 17.1 µM | BT-549 24.7 µM | IGROV-1 38.2 µM | SK-OV-3 17 µM | HOP-62 29 µM | NCI-H460 18.1 µM | UO-31 23 µM | MDA-N 14.4 µM | NCI-H522 13.6 µM | OVCAR-3 14.9 µM | HCT-116 14.7 µM | MCF7 20.6 µM | 786-0 25.7 µM | MOLT-4 15.7 µM | NCI/ADR-RES 17.7 µM | M14 17 µM | T47D 31 µM | Hs-578T 18.7 µM | MDA-MB-435 16.3 µM | EKVX 33.5 µM | SK-MEL-2 16.4 µM | HOP-92 13.8 µM | SNB-75 23.9 µM | OVCAR-5 29.4 µM | SK-MEL-5 17 µM | RXF 393 22.2 µM | UACC-257 23.9 µM | OVCAR-8 33.8 µM | HT-29 18.3 µM | SK-MEL-28 51.1 µM | DU-145 28.4 µM | CCRF-CEM 26.5 µM | SW-620 33.2 µM | OVCAR-4 16.9 µM | KM12 16.5 µM | A549 26.7 µM | PC-3 27.5 µM | LOX IMVI 15.1 µM | HCC 2998 26.5 µM | SF-268 20.8 µM | UACC-62 16.9 µM | CAKI-1 31.4 µM | HL-60 6.1 µM | SF-295 23.2 µM | NCI-H226 35.8 µM

Source: ChEMBL document CHEMBL1201862, “PubChem BioAssay data set” (2004)
